Source: patent publication US12180167B1, “6-[4,4-bis(4-bromophenyl)-2,5-dioxoimidazolidin-1-yl]hexanoic acid as an antimicrobial compound” (KING FAISAL UNIVERSITY, priority 2024, dated 2024)

How the values were obtained:
Assay type in all cases: cell-based
Details in all cases: after 10, 20, 40 and 60 minutes at all dilutions 1:100, 1:200, 1:400, 1:800
Candida albicans = assay: Antimicrobial testing by agar dilution, Candida albicans
Protocol: (§1) The antimicrobial properties of the 6-[4,4-bis(4-bromophenyl)-2,5-dioxoimidazolidin-1-yl]hexanoic acid were studied by the method of agar dilution. Test solutions of each compound was prepared in concentration of 1% using dimethylformamide as a solvent then they are diluted in physiological solution to obtain the final experimental dilutions 1:100, 1:200, 1:400, 1:800. The effect of these substances are compared with furacillin in a controllable study. The testing microbes used were gram positive bacteria Staphylococcus aereus, gram negative bacteria Escherichia Coli, Pseudomonas aeruginosa and Candida albicans fungi were taken. The experiments used for this survey were meat-pentonlu agar (EPA) for cultivation of bacteria and Saburo environment for fungi. Each experiment used 1 ml of test solution on each plate 500 min. Add 2 drops of emulsified with microbes feel. All experimental samples were taken from the agar after 10, 20, 40, 60 minutes in the environment on the basis of Patrk planted. Bacteria were cultivated at a temperature of 37° C. for 1 day and the mushroom was kept in a thermostat for 2 hours at a temperature of 28° C. in the. Then results were checked.

Escherichia Coli = assay: Antimicrobial testing by agar dilution, E. Coli
Protocol: as §1

Staphylococcus aereus = assay: Antimicrobial testing by agar dilution, St. Aereus
Protocol: as §1

Pseudomonas aeruginosa = assay: Antimicrobial testing by agar dilution, Ps. aeruginosa
Protocol: as §1

O=C(O)CCCCCN1C(=O)NC(c2ccc(Br)cc2)(c2ccc(Br)cc2)C1=O [6-[4,4-bis(4-bromophenyl)-2,5-dioxoimidazolidin-1-yl]hexanoic acid]
higher inhibition activity: inhibition activity, Candida albicans (Candida albicans) | inhibition activity, Escherichia Coli (Escherichia Coli) | inhibition activity, Staphylococcus aereus (Staphylococcus aereus) | inhibition activity, Pseudomonas aeruginosa (Pseudomonas aeruginosa)
